Details: 101.33 kPa, Liquid

CCOC(=O)CC(C)=O [ethyl 3-oxobutanoate]
Details	mass density [kg/m3]
278.15 K	1043.1
288.15 K	1034.5
298.15 K	1023.5
313.15 K	1008
328.15 K	992.1
338.15 K	981.9
348.15 K	971.4

From the NIST ThermoML archive (doi:10.1016/j.fluid.2008.03.012)
